Earlier results, collected in publication PMC6844301, “Antibacterial activity of a Tribolium castaneum defensin in an in vitro infection model of Streptococcus pneumoniae” (Virulence, 2019).

Tested on: multi-resistant clinical isolate serotype 19A (AMR)
Conditions: strain description of the AMR isolate in methods; method or ref not given
Description: They were grown on sheep blood agar plates for 10 h and then transferred to Todd Hewitt Yeast (THY) medium (Carl Roth GmbH, Karlsruhe) at a density of 4 × 10^7 bacteria/ml (Ultraspec 10 Cell Densitometer, Amersham Biosciences). Upon reaching a density of 2 × 10^8 bacteria/ml, the bacterial suspension was diluted to 5 × 10^6 bacteria/ml. To esta ...

Molecule | resistant against (antibiotic concentration)
CO/N=C(\C(=O)N[C@@H]1C(=O)N2C(C(=O)O)=C(COC(C)=O)CS[C@H]12)c1csc(N)n1 [Cefotaxim] | 4 µg/mL
CCC[C@@H]1C[C@@H](C(=O)N[C@@H]([C@H]2O[C@H](SC)[C@H](O)[C@@H](O)[C@H]2O)[C@H](C)Cl)N(C)C1 [Clindamycin] | 256 µg/mL
CN(C)[C@@H]1C(O)=C(C(N)=O)C(=O)[C@@]2(O)C(O)=C3C(=O)c4c(O)cccc4[C@@](C)(O)[C@H]3C[C@@H]12 [Tetracycline] | 32 µg/mL
Penicillin | 8 µg/mL
